Values of other authors in paper PMC4001449, “Thienoquinolines as Novel Disruptors of the PKCε/RACK2 Protein–Protein Interaction” (Journal of Medicinal Chemistry, 2014).

Key:
Conditions in all cases: cited from earlier work
PKCε = target: T1, PKCε (Homo sapiens, UniProt Q02156); set-up: method as in PMID 21186251
T1 sequence (Q02156 1-737): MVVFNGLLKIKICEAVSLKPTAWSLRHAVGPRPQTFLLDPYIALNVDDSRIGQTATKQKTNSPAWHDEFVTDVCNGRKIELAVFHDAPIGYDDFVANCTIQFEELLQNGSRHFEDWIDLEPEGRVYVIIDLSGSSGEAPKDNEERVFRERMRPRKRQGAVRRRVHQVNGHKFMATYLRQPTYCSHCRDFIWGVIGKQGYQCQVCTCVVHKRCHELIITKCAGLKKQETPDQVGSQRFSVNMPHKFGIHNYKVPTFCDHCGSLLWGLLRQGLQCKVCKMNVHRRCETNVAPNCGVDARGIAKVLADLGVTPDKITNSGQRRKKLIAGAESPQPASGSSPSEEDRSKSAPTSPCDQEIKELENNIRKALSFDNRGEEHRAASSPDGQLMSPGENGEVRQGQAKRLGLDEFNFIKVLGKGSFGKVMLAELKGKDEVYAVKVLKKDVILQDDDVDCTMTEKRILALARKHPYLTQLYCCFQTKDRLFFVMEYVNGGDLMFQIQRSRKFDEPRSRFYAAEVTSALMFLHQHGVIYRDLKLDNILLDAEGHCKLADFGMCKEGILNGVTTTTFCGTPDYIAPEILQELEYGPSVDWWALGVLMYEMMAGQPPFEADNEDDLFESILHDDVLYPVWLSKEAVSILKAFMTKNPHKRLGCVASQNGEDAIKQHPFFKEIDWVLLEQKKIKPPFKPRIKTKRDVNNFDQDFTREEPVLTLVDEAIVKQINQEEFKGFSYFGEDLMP

PKCη = PKCη (Homo sapiens, UniProt P24723); set-up: method as in PMID 21186251
[1] = test system: interaction of PKCι and its adaptor protein Par6; set-up: method as in PMID 16861740
ribonucleotide reductase = target: ribonucleotide reductase; set-up: method as in PMID 11668483

PKCη, sequence (P24723 whole entry): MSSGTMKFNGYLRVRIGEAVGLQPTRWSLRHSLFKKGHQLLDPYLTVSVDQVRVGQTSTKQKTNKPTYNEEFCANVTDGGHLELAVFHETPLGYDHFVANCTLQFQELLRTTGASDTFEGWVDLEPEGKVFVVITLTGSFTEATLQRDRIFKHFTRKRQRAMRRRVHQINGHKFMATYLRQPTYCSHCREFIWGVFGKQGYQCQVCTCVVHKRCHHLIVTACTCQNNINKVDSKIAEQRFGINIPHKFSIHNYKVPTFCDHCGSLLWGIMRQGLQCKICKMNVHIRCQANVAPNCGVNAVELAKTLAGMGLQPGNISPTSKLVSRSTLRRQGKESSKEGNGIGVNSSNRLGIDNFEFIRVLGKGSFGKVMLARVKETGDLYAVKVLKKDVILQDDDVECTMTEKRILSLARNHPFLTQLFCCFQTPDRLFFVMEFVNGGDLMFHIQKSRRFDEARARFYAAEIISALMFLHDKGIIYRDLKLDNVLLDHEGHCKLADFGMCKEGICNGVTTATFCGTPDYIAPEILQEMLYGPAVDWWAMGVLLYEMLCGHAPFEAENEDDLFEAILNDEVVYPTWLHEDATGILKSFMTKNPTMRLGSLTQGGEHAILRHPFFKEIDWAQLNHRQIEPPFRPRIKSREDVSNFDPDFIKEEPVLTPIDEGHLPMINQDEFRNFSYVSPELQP

## O=C1NC(=O)N(Cc2ccccc2)C(=O)/C1=C\c1ccc2c(c1)OCO2 [BAS 02104951]
PKCε
  Direct inhibition of PKCε: inhibited
PKCη
  Direct inhibition of PKCη: inhibited

## O=C(O)CC([S-])C(=O)O.[Au+] (stereo not shown) [aurothiomalate]
[1]
  Active concentration range, prevention of PKCι/Par6 interaction: ~10 µM

## hydroxyurea
Ribonucleotide reductase
  IC50: 37.2 µM
